Source: patent US6465205B2, “In vitro cell culture device including cartilage and methods of using the same” (The Research Foundation of State University of New York, priority 1999, dated 2002)

Key:
[1] = system: matrix metalloproteinases (MMP-2, MMP-9) in chondrocyte-conditioned medium; assay: Gelatin zymography for MMP activity; assay type: biochemical, bovine or porcine
Procedure: Cell viability and number were determined by Trypan blue staining and counting using a hemocytometer. Chondrocytes were plated on collagen inserts (Costar Transwell, VWR, Pittsburgh, Pa.) at 20-40×10^6 cells/well in DMEM/F12 containing antibiotics, 10% FBS, and 50 μg/ml ascorbic acid (prepared fresh and added every other day). After the chondrocytes had formed a layer of extracellular matrix (approximately 2 weeks), the medium was switched to serum free (DMEM/F12 with antibiotics, 5 μg/ml insulin, 15 μg/ml bovine pituitary extract, 10 μg/ml epidermal growth factor, 5 μg/ml transferrin, 1 μM hydrocortisone, 10^−8 M retinol, and ascorbic acid). Cultures were fed from the bottom every 3-4 days. Medium was collected from chondrocyte cultures on days 3, 5, 7, 10, and 14 after switching from 10% FBS-containing medium to SFM. […]
CCM or SFM, obtained as described above, was mixed with 2× sample buffer (20 mM DTT, 4% SDS, 50 mM Tris, 20% glycine, 0.002% Bromophenol blue), loaded without prior heating, and electrophoresed under non-reducing conditions at 4° C. for approximately 4 hours under constant voltage. […] Gels were rinsed twice with distilled water then stained for 1 hour in Coomassie blue stain, followed by destaining in water/methanol/acetic acid (6:3.5:0.5) until clear areas of enzyme activity were detected against a blue background. […]

[2] = system: respiratory epithelial cells; assay: Proliferation of respiratory epithelial cells (cell number by hemocytometer count); assay type: cell-based, porcine
Procedure: Porcine tracheal tissue obtained at necropsy was cleaned of debris, rinsed thoroughly with PBS, and epithelium and submucosa removed and soaked overnight at 4° C. in MEM containing antibiotics/antimycotics. Dissociated respiratory epithelial cells were isolated using elastase digestion as described by Hicks et al. (“Rapid Isolation of Upper Respiratory Epithelial Cells,” Mol. Biol. Cell., 5(Suppl.): 118a (Abstract), (1995); Hicks et al., “Isolation and Characterization of Basal Cells from Human Upper Respiratory Epithelium,” Exp. Cell Res. 237:357-363 (1997), which are hereby incorporated by reference) and plated on top of type I collagen-coated 35 mm petri dishes at 0.2×10^6 cells/cm^2 in serum free medium. In selected experiments, cells were cultured in Biocoat type I collagen-coated 24 well plates. Medium was collected for gelatin zymography as described above.
The proliferative effects of CCM on REC were assessed by addition of CCM diluted 1:1 with SFM. REC cultures grown on type I collagen were fed 0.1 ml CCM or control SFM daily, and media were changed completely every 3 days. […] After incubation at 37° C. for 20 minutes, REC were again washed with PBS/10% FBS, then resuspended in PBS and an aliquot counted using Trypan blue dye exclusion to determine viability and cell number. […]

| SMILES | MMP enzyme activity on zymogram developed in presence of chelator ([1]; developing buffer containing 20 mM EDTA (FIG. 5B)) | Block of MMP (marker protein) activity in pooled CCM by gelatin zymography ([1]; 5 nM, medium of day 3 and day 7 (FIGS. 7A-B)) | Effect on REC proliferation ([2]; 5 nM, REC cultured with or without CCM, cell number after 7 days) | Restoration of REC proliferation to control levels ([2]; concentrations of 10 and 50 W, in presence of CCM (FIG. 8)) |
| --- | --- | --- | --- | --- |
| O=C(O)CN(CCN(CC(=O)O)CC(=O)O)CC(=O)O [EDTA, ethylenediamine tetraacetic acid] | enzyme activity was abolished | – | – | – |
| CNC(=O)[C@H](Cc1c[nH]c2ccccc12)NC(=O)[C@@H](CC(=O)NO)CC(C)C [GM6001] | – | did not block marker protein activity | nor was proliferation positively affected | proliferation was not restored to control levels |
